Test results from patent publication US9546401B2, “Assays and methods for selecting a treatment regimen for a subject with depression” (The General Hospital Corporation, priority 2011, dated 2017).
Read-outs that look alike come from different tables or passages of the source.

Test system: MDD patients carrying the indicated biomarkers
Settings: for HAMD-17 change, Effect / HAMD-28 change, Effect: + SSRI
Experimental: Folate levels are classified as either low (<=2.5 ng/ml) or normal; and homocysteine levels as either normal or elevated (>=[…]). The presence or absence of at least one […] allele for the MTHFR gene are entered as a dichotomous variable (present or absent). […] Using folate as an example predicator, the presence or absence of a low serum-folate level along with treatment assignment can be entered in a 2×2, factorial ANOVA, using depression improvement scores (baseline minus endpoint HAM-D-17 scores) as the dependant variable. […] Similar analyses (i.e. separate 2×2 ANOVA's) can be performed substituting the presence of low folate levels for the presence of other predictors as described herein. Similarly, the effect of other predictors can be indicated by the interaction term representing the potential modulating influence of those variables.
The efficacy effect is determined by measuring the mean change in the HAMD-17 score and HAMD-28 score by the end of Phase I and Phase II, as compared to the baseline.

[1] = A + B: BMI > 30 & LOW SAM/SAH RATIO, N = 13
[2] = A + C: BMI > 30 & HIGH 4-HNE, N = 12
[3] = A + D: BMI > 30 & MTHFR 677 CT/TT, N = 9
[4] = A + E + F: BMI > 30 & MTR 2756 AG/GG & MTRR 66 AG/GG, N = 4
[5] = A + E: BMI > 30 & MTR 2756 AG/GG, N = 5
[6] = B + C: LOW SAM/SAH RATIO & HIGH 4-HNE, N = 11
[7] = B + E + F: LOW SAM/SAH RATIO & MTR 2756 AG/GG & MTRR 66 AG/GG, N = 5
[8] = B + E: LOW SAM/SAH RATIO & MTR 2756 AG/GG, N = 6
[9] = B + F: LOW SAM/SAH RATIO & MTRR 66 AG/GG, N = 11
[10] = C + D: HIGH 4-HNE & MTHFR 677 CT/TT, N = 8
[11] = C + E + F: HIGH 4-HNE & MTR 2756 AG/GG & MTRR 66 AG/GG, N = 4
[12] = C + E: HIGH 4-HNE & MTR 2756 AG/GG, N = 9
[13] = C + F: HIGH 4-HNE & MTRR 66 AG/GG, N = 15
[14] = D + E: MTHFR 677 CT/TT & MTR 2756 AG/GG, N = 4
[15] = E + F: MTR 2756 AG/GG & MTRR 66 AG/GG, N = 8
[16] = MTHFR 677 CC and MTR 2756 AA, Phase I
[17] = MTHFR 677 CC and MTR 2756 AA, Phase II
[18] = MTHFR 677 CC and MTR 2756 AA, Pooled phases
[19] = MTHFR 677 CT or TT and MTR 2756 AG or GG, Phase I
[20] = MTHFR 677 CT or TT and MTR 2756 AG or GG, Phase II
[21] = MTHFR 677 CT or TT and MTR 2756 AG or GG, Pooled phases
[22] = MTR 2756 AA and MTRR 66 AA and BMI < 30 kg/m^2, Phase II
[23] = MTR 2756 AG or GG and MTRR 66 AG or GG and BMI >= 30 kg/m^2, Phase I
[24] = MTR 2756 AG or GG and MTRR 66 AG or GG and BMI >= 30 kg/m^2, Phase II
[25] = MTR 2756 AG or GG and MTRR 66 AG or GG and BMI >= 30 kg/m^2, Pooled phases

Question: What does the source list for `CN1c2c(nc(N)[nH]c2=O)NC[C@@H]1CNc1ccc(C(=O)N[C@@H](CCC(=O)O)C(=O)O)cc1` [6(S)-5-MTHF, 6(S)-5-methyltetrahydrofolate]?
Answer: Pooled Effect Size HAMD-17 [1]: −7.302; Pooled Effect Size HAMD-28 [1]: −7.572; Pooled Effect Size HAMD-17 [2]: −5.420; Pooled Effect Size HAMD-28 [2]: −5.996; Pooled Effect Size HAMD-17 [3]: −8.090; Pooled Effect Size HAMD-28 [3]: −9.884; Pooled Effect Size HAMD-17 [4]: −10.972; Pooled Effect Size HAMD-28 [4]: −15.347; Pooled Effect Size HAMD-17 [5]: −11.714; Pooled Effect Size HAMD-28 [5]: −14.433; Pooled Effect Size HAMD-17 (A: BMI > 30, N = 21): −4.600; Pooled Effect Size HAMD-28 (A: BMI > 30, N = 21): −4.660; Pooled Effect Size HAMD-17 [6]: −9.898; Pooled Effect Size HAMD-28 [6]: 9.500; Pooled Effect Size HAMD-17 [7]: −7.640; Pooled Effect Size HAMD-28 [7]: −11.620; Pooled Effect Size HAMD-17 [8]: −5.583; Pooled Effect Size HAMD-28 [8]: −11.683; Pooled Effect Size HAMD-17 [9]: −5.879; Pooled Effect Size HAMD-28 [9]: −6.879; Pooled Effect Size HAMD-17 (B: LOW SAM/SAH RATIO, N = 18): −3.622; Pooled Effect Size HAMD-28 (B: LOW SAM/SAH RATIO, N = 18): −4.572; Pooled Effect Size HAMD-17 [10]: −9.446; Pooled Effect Size HAMD-28 [10]: −9.865; Pooled Effect Size HAMD-17 [11]: −7.942; Pooled Effect Size HAMD-28 [11]: −10.241; Pooled Effect Size HAMD-17 [12]: −8.072; Pooled Effect Size HAMD-28 [12]: −9.508; Pooled Effect Size HAMD-17 [13]: −4.850; Pooled Effect Size HAMD-28 [13]: −6.582; Pooled Effect Size HAMD-17 (C: HIGH 4-HNE, N = 21): −4.175; Pooled Effect Size HAMD-28 (C: HIGH 4-HNE, N = 21): 4.554; Pooled Effect Size HAMD-17 [14]: −18.710; Pooled Effect Size HAMD-28 [14]: −23.290; Pooled Effect Size HAMD-17 [15]: −6.976; Pooled Effect Size HAMD-28 [15]: −9.348; Pooled Effect Size HAMD-17 (E: MTR 2756 AG/GG, N = 11): −5.677; Pooled Effect Size HAMD-28 (E: MTR 2756 AG/GG, N = 11): −8.243; effect in carriers of both variants relative to the sum of the individual biomarker effects (HAMD-28 mean change, MTHFR T + MTR G): at least 2 fold; HAMD-17 change, Effect [16]: −0.700; HAMD-28 change, Effect [16]: −0.192; HAMD-17 change, Effect [17]: −0.571; HAMD-28 change, Effect [17]: 0.048; HAMD-17 change, Effect [18]: 0.722; HAMD-28 change, Effect [18]: 0.711; HAMD-17 change, Effect [19]: −13.47; HAMD-28 change, Effect [19]: −18.00; HAMD-17 change, Effect [20]: −10.33; HAMD-28 change, Effect [20]: −13.00; HAMD-17 change, Effect [21]: −18.71; HAMD-28 change, Effect [21]: −23.29; HAMD-17 change, Effect [22]: −4.333; HAMD-28 change, Effect [22]: −4.667; HAMD-17 change, Effect [23]: −13.667; HAMD-28 change, Effect [23]: −18.833; HAMD-17 change, Effect [24]: −11.000; HAMD-28 change, Effect [24]: −12.000; HAMD-17 change, Effect [25]: −10.972; HAMD-28 change, Effect [25]: −15.347; Pooled Effect Size HAMD-17 (OVERALL, N = 73): −2.264; Pooled Effect Size HAMD-28 (OVERALL, N = 73): −2.738; Effect on change in HAMD-17 score (Phase I, 25 =< BMI < 30 kg/m^2): 2.600; Effect on change in HAMD-28 score (Phase I, 25 =< BMI < 30 kg/m^2): 2.602; Effect on change in HAMD-17 score (Phase I, BMI < 25): 1.576; Effect on change in HAMD-28 score (Phase I, BMI < 25): 0.909; Effect on change in HAMD-17 score (Phase I, BMI < 30 kg/m^2 and HNE-His < median): 3.771
